This is an account of results in patent publication US20250222114A1, “GLYCOCONJUGATED DRUG FOR THE TREATMENT OF HEPATOCELLULAR CARCINOMA” (priority 2021, published 2025).

Data set [1] concerns HAS3. As to the kind of experiment: HAS3 mRNA expression (RT-qPCR), CFSC-2G. Format: cell-based, rat. The following applies: CFSC-2G cells. The protocol: (§1) Since HAS mRNA levels often correspond to the activity of hyaluronan synthesis, the effect of 4MUR on HAS2 and HAS3 expression was assessed. To this end, cells with a concentration of 100,000 cells/ml were cultured on 6-well plates and treated with 4MUR (500 μM) for 24 h. Total RNA was extracted using the TriReagent (Sigma Aldrich) according to the manufacture's protocol. RNA was quantified at 260 nm in a DU®730 spectrophotometer (Beckman Coulter, Fullerton, CA, USA). The RNA purity was evaluated according to MIQE guidelines by measuring the ratio A260/A280. […] RT-qPCR for HAS2, HAS3 genes was performed using iQ SYBR Green Supermix protocol (Bio-Rad Laboratories, Milan, Italy). Each PCR amplification was carried out following manufactures instructions (iQ SYBR Green Supermix-Bio-Rad) in a Bio-Rad iQ5 real-time PCR detection system (iCycler IQ5 software, version 3.1; Bio-Rad) Expression was normalized to actin with two reference genes.
A general note: Real-time PCR tracks product formation cycle by cycle.

In data set [2] the test system is orthotopic Hepa129 tumors. Briefly: Orthotopic hepatocellular carcinoma model associated with advanced fibrosis induced by TAA. Format: in vivo, C3H/He mice. As to conditions: for tumor volume: 20 mg/Kg i.p. 3 times a week, day 21 post Hepa129 inoculation; for animals in which tumors were not detected macroscopically: day 21 post-Hepa129; for animal survival: Day 20, FIG. 12C; for fibrosis degree measured by collagen deposits (Sirius red): liver sections. The method, then:
To assess the in vivo antitumoral efficacy of 4MUR, an orthotopic tumor model associated with advanced fibrosis induced by TAA was established
C3H/He mice were intraperitoneally (i.p.) treated with 20 mg/kg thioacetamide (TAA) 3 times a week, for 4 weeks, in order to induce liver fibrosis. On day 28, mice were anesthetized and underwent surgery and orthotopic tumors were established by subcapsular intrahepatic inoculation of 1.25×10^5 Hepa129 cells into the left lobe of the liver (Day 0).
Between day 5 and day 7 post-administration of the cells, animals were again subjected to surgery for observing tumor development. Mice were divided into 3 groups (n=5) and each group received: (1) Saline solution (control); (2) 4MU dissolved in water, at a dose of 20 mg/Kg; (3) 4MUR dissolved in water at a dose of 20 mg/Kg. Intraperitoneal administration for different groups began on day 5 and was performed 3 times a week, until the end of the experiment on day 21 post Hepa129 inoculation. On day 21, animals were sacrificed, mice weight was recorded and ascites grade (mild, moderated, severe, and hemorrhagic), as well as tumor volume (mm^3), was calculated by the formula π/6×larger diameter×(smaller diameter)^2, by caliber measurement.
The 4MUR treatment on liver fibrogenesis was evaluated in the animal model. […] To assess the extent of liver fibrosis, formalin-fixed liver samples were embedded in paraffin and 5 μm sections were stained by Sirius Red for detection of fibrillar collagen. Quantitative analysis of Sirius red stained area was performed by computerized morphometric analysis. About 50 light microscope images (100× magnification) per specimen were captured and analyzed using the color threshold detection system developed in ImageJ software (NIH, USA). The results were expressed as percentage of positive area. Collagen deposition was quantified by morphometric analysis and densitometry.
To further understand the 4MUR effect on HCC, HA expression was evaluated in liver tissue sections of mice from the different groups by staining with an HA-binding protein (HA-BP). Negative controls were stained with bHA-BP and pretreated with 100 U/ml Streptomyces hyaluronidase (#385931, Calbiochem) at 37° C. for 30 min. Peroxidase complex (Sigma) 1:10 in PBS was used for developing. The signal was detected by 0.1% diaminobenzidine (Sigma-Aldrich, Buenos Aires, Argentina), 4% glucose, 0.08% ClNH4, 5% nickel ammonium sulfate in 0.2 M AcNa and 0.05% H2O2.

A further data set can be described thus: Toxicity study in mice. The format is in vivo, C3Hj mice. As to conditions: for animal body weight: more than 20 days. The method, then:
In order to evaluate the toxicity of the compound of the invention, an in vivo assay with mice was carried out. Animals treated with 4MUR were kept healthy during all the experimental protocol.
Briefly, C3Hj mice untreated (n=4) or treated with 4MU (n=4) or 4MUR (n=5) were used to assess its toxicology profile. Mice weight was supervised for more than 20 days. At the end of the experiments, healthy mice or mice receiving 4MU/4MUR were sacrificed to collect liver, spleen, heart, lung, and kidney samples. Tissue sections from liver, spleen, heart, and lungs were paraffin-embedded and H&E staining procedure was performed using standard protocols.

The subject of the next data set is HA in Hepa129 cells. As to the kind of experiment: HA content by flow cytometry, Hepa129. Format: cell-based, murine. As to conditions: 48 h.
Data set [3] relates to HAS3. Briefly: HAS3 mRNA expression (RT-qPCR), Huh7. Format: cell-based, human. The following applies: Huh7 cells. The method, then: as §1
Data set [4] concerns α-SMA, TGF-β, COL1A2, TIMP-1, MMP-9 in CFSC-2G cells. As to the kind of experiment: Fibrotic-related gene expression by qPCR, CFSC-2G. The format is cell-based, rat. The following applies: 48 h. The method, then: The effect of 4MUR on liver fibrogenesis was assessed by the expression of the fibrotic-related genes including α-SMA, TGF-β, profibrogenic (COL1A2 and TIMP-1), and the antifibrogenic gene matrix metalloproteinase (MMP-9) on CFSC-2G cells by qPCR.

Data set [5] has as its system orthotopic Hepa129 tumors. Briefly: Orthotopic hepatocellular carcinoma model associated with advanced fibrosis induced by TAA. Format: in vivo, C3H/He mice. As to conditions: oral administration 200 mg/kg/day.
Data set [6] deals with Hepa1-6 (murine hepatic cell line). As to the kind of experiment: Cell viability, Hepa1-6. Format: cell-based. As to conditions: Hepa 1.6 cells, compared with 4-MU. The method, then: In order to evaluate the therapeutic efficacy and potential cytotoxicity of the glycoconjugated drug of the invention for the treatment of HCC, cell viability assays were carried out in different cell lines.
To this end, an in vitro model was designed. The cells used for in vitro assay were a murine hepatic cell line (Hepa1-6) and a human hepatic cell line (Huh7).
Chemiograms were performed using increasing doses of the compound 4-MU as well as the glycosylated compound 4MUR (0-2000 μM). Cell viability was measured by using the CellTiter kit (Promega Corporation). Proliferation was measured through a tritiated thymidine incorporation assay, by incubating the cells for 48 h with either one of the compounds (4MU/4MUR) or culture medium (RPMI) in the presence of 3H-thymidine (Migliore-LaClaustra).

Several values for one entry are separate records, joined by “and”; a condition that tells them apart may be missing. Equal values may be shown once.

For `Cc1cc(=O)oc2cc(O)ccc12` [4MU, 4-Methylumbelliferone, reference compound], the HAS3 expression upregulation in the data set with HAS3 [1] came to 4.2 fold. In data set [2], the tumor volume is reported as 243.8±94.0 mm^3; the animal survival is 66% and 67%. In data set [2] (20 mg/Kg i.p.), the “animals in which tumors were not detected macroscopically” value was determined as 20% and the “fibrosis degree measured by collagen deposits (Sirius red)” value is reported as 0.53±0.04. In addition, in “Toxicity study in mice”, the “histology (H&E) of liver, kidney, lungs, spleen, heart” value is listed as “no induced tissue damage” and the animal body weight entry is on record as “no significant changes”. In addition, the HA contents entry with HA in Hepa129 cells is “significantly decreased”. The HAS3 up-regulation result in the data set on HAS3 [3] is recorded as “around 3.5 fold”.
Take `Cc1cc(=O)oc2cc(O[C@@H]3O[C@H](CO[C@@H]4O[C@@H](C)[C@H](O)[C@@H](O)[C@H]4O)[C@@H](O)[C@H](O)[C@H]3O)ccc12` [4MUR, 4-methylumbelliferyl-rutinoside]: in data set [4], the COL1A2 expression result is reported as “strongly downregulated”, the MMP-9 expression result was “not affected”, the TGF-β expression result was “strongly downregulated” and the TIMP-1 expression entry was “strongly downregulated”. Moreover, the α-SMA expression result in data set [4] is “strongly downregulated”. The “efficacy against hepatocellular carcinoma” value in data set [5] is on record as “efficient”. Also, in the data set with HAS3 [1], the “HAS3 expression down regulation” value was determined as 4.5 fold. In data set [2] (20 mg/Kg i.p.), the “HA expression in liver tissue (HA-BP staining)” value is “remarkable reduction”, the “animals in which tumors were not detected macroscopically” value was determined as 60% and the “fibrosis degree measured by collagen deposits (Sirius red)” value turned out to be 0.21±0.02. In addition, in data set [2], the tumor volume is listed as 113.5±77.8 mm^3 and the animal survival was 100%. Further, in data set [2] (compared with untreated mice and 4MU), the “amount of ascitic fluid” value is reported as “significantly reduced”. Also, the “efficacy against hepatocellular carcinoma” value in data set [2] (i.p. 20 mg/kg/day) is “efficient”. In the data set “Toxicity study in mice”, the “health of animals during the experimental protocol” value was “kept healthy”; the “histology (H&E) of liver, kidney, lungs, spleen, heart” value is given as “no induced tissue damage”; the animal body weight entry is recorded as “no significant changes”. For the same compound, in data set [6], the “in vitro antitumoral effect” value was “significantly higher than 4-MU”. Further, in the data set on HA in Hepa129 cells, the HA contents result is listed as “significantly decreased”. In the data set with HAS3 [3], the “expression of HAS3” value is listed as “significantly reduced”.
